Data: PubChem BioAssay AID1963980 (Molecular Pharmacology Branch, DTP, NCI, 2024)
pIC50: −log10 of the molar value.

Tested on: 475296-252-R-J1-PDC spheroid viability
Test: Anticancer human tumor 475296-252-R-J1-PDC patient-derived rectal carcinoma cell line growth inhibition [PI3K]
Conditions: spheroids with HUVEC and MSC; for pIC50: curve of first compound; for viability, T/C: stronger effect = lower value
Summary of the method: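 Viability of mixed-cell spheroids was determined after exposure to pairwise combinations, one partner being inavolisib, alpelisib, duvelisib or copanlisib. Highest tested concentration matched clinical Cmax where known and 10 microM where not, descending in half-log steps.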

[1] = second compound 0.0316 µM, first compound 0.0316 µM
[2] = second compound 0.0316 µM, first compound 0.1 µM
[3] = second compound 0.0316 µM, first compound 0.316 µM
[4] = second compound 0.0316 µM, first compound 1 µM
[5] = second compound 0.0316 µM, first compound 3.16 µM
[6] = second compound 0.0316 µM, first compound 10 µM
[7] = second compound 0.1 µM, first compound 0.0316 µM
[8] = second compound 0.1 µM, first compound 0.1 µM
[9] = second compound 0.1 µM, first compound 0.316 µM
[10] = second compound 0.1 µM, first compound 1 µM
[11] = second compound 0.1 µM, first compound 3.16 µM
[12] = second compound 0.1 µM, first compound 10 µM
[13] = second compound 0.316 µM, first compound 0.0316 µM
[14] = second compound 0.316 µM, first compound 0.1 µM
[15] = second compound 0.316 µM, first compound 0.316 µM
[16] = second compound 0.316 µM, first compound 1 µM
[17] = second compound 0.316 µM, first compound 3.16 µM
[18] = second compound 0.316 µM, first compound 10 µM
[19] = second compound 1 µM, first compound 0.0316 µM
[20] = second compound 1 µM, first compound 0.1 µM
[21] = second compound 1 µM, first compound 0.316 µM
[22] = second compound 1 µM, first compound 1 µM
[23] = second compound 1 µM, first compound 3.16 µM
[24] = second compound 1 µM, first compound 10 µM
[25] = second compound 3.16 µM, first compound 0.0316 µM
[26] = second compound 3.16 µM, first compound 0.1 µM
[27] = second compound 3.16 µM, first compound 0.316 µM
[28] = second compound 3.16 µM, first compound 1 µM
[29] = second compound 3.16 µM, first compound 3.16 µM
[30] = second compound 3.16 µM, first compound 10 µM
[31] = second compound 10 µM, first compound 0.0316 µM
[32] = second compound 10 µM, first compound 0.1 µM
[33] = second compound 10 µM, first compound 0.316 µM
[34] = second compound 10 µM, first compound 1 µM
[35] = second compound 10 µM, first compound 3.16 µM
[36] = second compound 10 µM, first compound 10 µM
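Further: spheroids exposed to agents for seven days before readout.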

Work on `C#Cc1c(F)ccc2cc(O)cc(-c3ncc4c(N5CC6CCC(C5)N6)nc(OCC56CCCN5CC(F)C6)nc4c3F)c12` (stereo not drawn) + Cc1nc(NC(=O)N2CCCC2C(N)=O)sc1-c1ccnc(C(C)(C)C(F)(F)F)c1 yielded a pIC50 (second compound 0.0316 µM) of under 5.00, a pIC50 (second compound 0.1 µM) of under 5.00 and a pIC50 (second compound 0.316 µM) of 5.08. For the same compound, the pIC50 (second compound 1 µM) was 5.35, the pIC50 (second compound 3.16 µM) was 6.16 and the pIC50 (second compound 10 µM) was 6.57. For the same compound, the viability, T/C [1] was 88.4%, the viability, T/C [2] was 84.1% and the viability, T/C [3] was 88.5%. For the same compound, the viability, T/C [4] was 74.2%, the viability, T/C [5] was 67.9% and the viability, T/C [6] was 66%. It also gave a viability, T/C [7] of 87.1%, a viability, T/C [8] of 78.9% and a viability, T/C [9] of 88.1%. It also gave a viability, T/C [10] of 64.6%, a viability, T/C [11] of 66.9% and a viability, T/C [12] of 59%. It also gave a viability, T/C [13] of 80.2%, a viability, T/C [14] of 84.7% and a viability, T/C [15] of 73.6%. For the same compound, the viability, T/C [16] was 71.7%, the viability, T/C [17] was 61.1% and the viability, T/C [18] was 48%. The viability, T/C [19] was 78.4%, the viability, T/C [20] was 82.8% and the viability, T/C [21] was 72%. It also gave a viability, T/C [22] of 65.5%, a viability, T/C [23] of 60.3% and a viability, T/C [24] of 32.7%. It also gave a viability, T/C [25] of 89.1%, a viability, T/C [26] of 75.3% and a viability, T/C [27] of 65.1%. For the same compound, the viability, T/C [28] was 44.8%, the viability, T/C [29] was 21.7% and the viability, T/C [30] was 10.4%. For the same compound, the viability, T/C [31] was 73.4%, the viability, T/C [32] was 70.2% and the viability, T/C [33] was 46.6%. It also gave a viability, T/C [34] of 9.2%, a viability, T/C [35] of 5.28% and a viability, T/C [36] of 3.54%.

Work on `C=CC(=O)N1CCN(c2nc(=O)n(-c3c(C)ccnc3C(C)C)c3nc(-c4c(O)cccc4F)c(F)cc23)C(C)C1` (stereo not drawn) + Cc1nc(NC(=O)N2CCCC2C(N)=O)sc1-c1ccnc(C(C)(C)C(F)(F)F)c1 yielded a pIC50 (second compound 0.0316 µM) of under 5.00, a pIC50 (second compound 0.1 µM) of under 5.00 and a pIC50 (second compound 0.316 µM) of under 5.00. For the same compound, the pIC50 (second compound 1 µM) was under 5.00, the pIC50 (second compound 3.16 µM) was under 5.00 and the pIC50 (second compound 10 µM) was under 5.00. For the same compound, the viability, T/C [1] was 90%, the viability, T/C [2] was 79.2% and the viability, T/C [3] was 99.9%. It also gave a viability, T/C [4] of 89.7%, a viability, T/C [5] of 106% and a viability, T/C [6] of 102%. The viability, T/C [7] was 105%, the viability, T/C [8] was 75.8% and the viability, T/C [9] was 106%. It also gave a viability, T/C [10] of 82%, a viability, T/C [11] of 104% and a viability, T/C [12] of 108%. For the same compound, the viability, T/C [13] was 90.4%, the viability, T/C [14] was 107% and the viability, T/C [15] was 96.4%. The viability, T/C [16] was 103%, the viability, T/C [17] was 96.8% and the viability, T/C [18] was 95%. For the same compound, the viability, T/C [19] was 88%, the viability, T/C [20] was 94.1% and the viability, T/C [21] was 99.8%. It also gave a viability, T/C [22] of 97.5%, a viability, T/C [23] of 109% and a viability, T/C [24] of 95.8%. It also gave a viability, T/C [25] of 83.6%, a viability, T/C [26] of 85% and a viability, T/C [27] of 95.2%. The viability, T/C [28] was 87.2%, the viability, T/C [29] was 92.9% and the viability, T/C [30] was 93.8%. The viability, T/C [31] was 94.6%, the viability, T/C [32] was 87.8% and the viability, T/C [33] was 95.5%. It also gave a viability, T/C [34] of 94.2%, a viability, T/C [35] of 95.2% and a viability, T/C [36] of 80.6%.

`CC(Cn1ccc(-c2ccc(C#N)c(Cl)c2)n1)NC(=O)c1cc(C(C)O)[nH]n1` (stereo not drawn) + Cc1nc(NC(=O)N2CCCC2C(N)=O)sc1-c1ccnc(C(C)(C)C(F)(F)F)c1 was tested, and the pIC50 (second compound 0.0316 µM) was under 5.00, the pIC50 (second compound 0.1 µM) was under 5.00 and the pIC50 (second compound 0.316 µM) was under 5.00. For the same compound, the pIC50 (second compound 1 µM) was under 5.00, the pIC50 (second compound 3.16 µM) was under 5.00 and the pIC50 (second compound 10 µM) was under 5.00. It also gave a viability, T/C [1] of 105%, a viability, T/C [2] of 108% and a viability, T/C [3] of 110%. It also gave a viability, T/C [4] of 98.4%, a viability, T/C [5] of 105% and a viability, T/C [6] of 107%. It also gave a viability, T/C [7] of 98.1%, a viability, T/C [8] of 99.7% and a viability, T/C [9] of 111%. It also gave a viability, T/C [10] of 105%, a viability, T/C [11] of 120% and a viability, T/C [12] of 112%. It also gave a viability, T/C [13] of 93.1%, a viability, T/C [14] of 104% and a viability, T/C [15] of 103%. It also gave a viability, T/C [16] of 97.9%, a viability, T/C [17] of 102% and a viability, T/C [18] of 99.1%. It also gave a viability, T/C [19] of 95.9%, a viability, T/C [20] of 108% and a viability, T/C [21] of 91.4%. For the same compound, the viability, T/C [22] was 99.2%, the viability, T/C [23] was 111% and the viability, T/C [24] was 111%. The viability, T/C [25] was 98.4%, the viability, T/C [26] was 96.1% and the viability, T/C [27] was 103%. The viability, T/C [28] was 105%, the viability, T/C [29] was 105% and the viability, T/C [30] was 101%. The viability, T/C [31] was 90.2%, the viability, T/C [32] was 84.3% and the viability, T/C [33] was 97%. It also gave a viability, T/C [34] of 98.9%, a viability, T/C [35] of 95% and a viability, T/C [36] of 91.2%.

With `CC1(C)CCC(Nc2ncc(C(F)(F)F)c(-c3c[nH]c4c(P(C)(C)=O)c(C#N)ccc34)n2)CN1` (stereo not drawn) + Cc1nc(NC(=O)N2CCCC2C(N)=O)sc1-c1ccnc(C(C)(C)C(F)(F)F)c1 the pIC50 (second compound 0.0316 µM) was under 5.00, the pIC50 (second compound 0.1 µM) was under 5.00 and the pIC50 (second compound 0.316 µM) was under 5.00. It also gave a pIC50 (second compound 1 µM) of under 5.00, a pIC50 (second compound 3.16 µM) of under 5.00 and a pIC50 (second compound 10 µM) of under 5.00. The viability, T/C [1] was 89.6%, the viability, T/C [2] was 90.4% and the viability, T/C [3] was 119%. It also gave a viability, T/C [4] of 139%, a viability, T/C [5] of 178% and a viability, T/C [6] of 82.4%. The viability, T/C [7] was 97.2%, the viability, T/C [8] was 96.4% and the viability, T/C [9] was 106%. It also gave a viability, T/C [10] of 142%, a viability, T/C [11] of 176% and a viability, T/C [12] of 91.7%. The viability, T/C [13] was 95.2%, the viability, T/C [14] was 104% and the viability, T/C [15] was 97.3%. It also gave a viability, T/C [16] of 129%, a viability, T/C [17] of 193% and a viability, T/C [18] of 83.2%. It also gave a viability, T/C [19] of 100%, a viability, T/C [20] of 111% and a viability, T/C [21] of 110%. The viability, T/C [22] was 143%, the viability, T/C [23] was 165% and the viability, T/C [24] was 81.5%. The viability, T/C [25] was 99.3%, the viability, T/C [26] was 106% and the viability, T/C [27] was 109%. For the same compound, the viability, T/C [28] was 121%, the viability, T/C [29] was 139% and the viability, T/C [30] was 72.9%. The viability, T/C [31] was 104%, the viability, T/C [32] was 97.1% and the viability, T/C [33] was 94%. The viability, T/C [34] was 107%, the viability, T/C [35] was 121% and the viability, T/C [36] was 62.9%.
